This note sets out measurements from paper PMC9847679, “The anti-breast cancer stem cell properties of gold(I)-non-steroidal anti-inflammatory drug complexes” (Chemical Science, 2022).

Data set [1] deals with HMLER-shEcad cells. Nature of the data set: Mammosphere formation assay. It counts as cell-based, human. As to conditions: at IC20 value, single cell suspensions, 5 days incubation. As to the method: (§1) media. The final concentration of DMSO in each well was ≤1 %. After 72 h, 20 μl of MTT (4 mg mL-1 in PBS) was added to each well and the plates incubated for an additional 4 h at 37 °C. The media/MTT mixture was eliminated and DMSO (100 μl per well) was added to dissolve the formazan precipitates. The optical density was measured at 550 nm using a 96-well multiscanner autoreader. Absorbance values were normalised to (DMSO-containing) control wells and plotted as concentration of test compound versus % cell viability. IC50 values were interpolated from the resulting dose dependent curves. The reported IC50 values are the average of three independent experiments (n = 18).
Tumorsphere Formation and Viability Assay. […] Mammospheres treated with 1-3, 5-fluorouracil, capecitabine, cisplatin, carboplatin, and salinomycin (at their respective IC20 values, 5 days) were counted and imaged using an inverted microscope. The viability of the mammospheres was determined by addition of a resazurin-based reagent, TOX8 (Sigma). After incubation for 16 h, the fluorescence of the solutions was read at 590 nm (λex = 560 nm). […] Fluorescence values were normalised to DMSO-containing controls and plotted as concentration of test compound versus % mammospheres viability. […]
Cellular Uptake. […] The number of cells was counted at this stage, using a haemocytometer. […] Gold levels are expressed as mass of Au (ng) per million cells. […]

Data set [2] deals with HMLER cells. Nature of the data set: Monolayer cytotoxicity (MTT assay), HMLER cells. It counts as cell-based, human. As to conditions: 72 h incubation, MTT.
From the text: (§2) Cell Lines and Cell Culture Conditions. The human mammary epithelial HMLER and HMLER-shEcad cell lines were kindly donated by Prof. R. A. Weinberg (Whitehead Institute, MIT). The human epithelial breast MCF10A, breast adenocarcinoma MDA-MB-231 and MDA-MB-468, murine epithelial breast 4T1, and embryonic kidney HEK 293 cell lines were acquired from American Type Culture Collection (ATCC, Manassas, VA, USA).
(§3) HMLER, HMLER-shEcad, and MCF10A cells were maintained in Mammary Epithelial Cell Growth Medium (MEGM) with supplements and growth factors (BPE, hydrocortisone, hEGF, insulin, and gentamicin/amphotericin-B). MDA-MB-231, MDA-MB-468, 4T1, and HEK 293 cells were maintained in Dulbecco's Modified Eagle's Medium (DMEM) supplemented with fetal bovine serum (10 %) and penicillin/streptomycin (1 %). The cells were grown at 310 K in a humidified atmosphere containing 5% CO2.
(§4) Monolayer Cytotoxicity Studies. Exponentially growing cells were seeded at a density of approximately 5 × 10^3 cells per well in 96-well flat-bottomed microplates and allowed to attach for 24 h prior to addition of compounds. Various concentrations of the test compounds (0.0004-100 μM) were added and incubated for 72 h at 37 °C (total volume 200 μl). Stock solutions of the compounds were prepared as 10 mM DMSO solutions and diluted using cell […]
as §1, with “18). […]” for “18).”
After incubation for 16 […]
h, the fluorescence of the solutions was read at 590 nm (λex = 560 nm). Viable mammospheres reduce the amount of the oxidised TOX8 form (blue) and concurrently increase the amount of the fluorescent TOX8 intermediate (red), indicating the degree of mammosphere cytotoxicity caused by the test compound. […]
Cellular Uptake. To measure the cellular uptake of 1-3 about 1 million HMLER-shEcad cells were treated with 1-3 (0.25 μM) at 37 °C for 24 h. After incubation, the media was removed, the cells were washed with PBS (2 mL × 3) and harvested. The number of cells was counted at this stage, using a haemocytometer. This mitigates any cell death induced by 1-3 at the administered concentration and experimental cell loss. The cellular pellets were dissolved in 65% HNO3 (250 µL) overnight. A cellular pellet of HMLER-shEcad cells treated with 1 was also used to determine the gold content in the nuclear, cytoplasmic and membrane fractions. The Thermo Scientific NE-PER Nuclear and Cytoplasmic Extraction Kit was used to extract and separate the nuclear, cytoplasmic and membrane fractions. The fractions were dissolved in 65% HNO3 (250 µL final volume) overnight. All samples were diluted 17-fold with water and analysed using inductively coupled plasma mass spectrometry (ICP-MS, Thermo Scientific ICAP-Qc quadrupole ICP mass spectrometer). Gold levels are expressed as mass of Au (ng) per million cells. Results are presented as the mean of four determinations for each data point.
Intracellular ROS Assay. […]
Background: Tetrazolium dyes change colour on reduction, which living cells bring about.

Data set [3] can be described thus: Reaction with thiol-containing biomolecules (1H and 31P NMR). As to conditions: 10 mM in DMSO-d6, 37 °C, 72 h. As to the method: As the mechanism of toxicity of many gold(I) complexes is associated to their interaction with thiol groups in proteins,[23] the reaction of 1 with N-acetylcysteine (NAC) and glutathione (GSH), model thiol-containing biomolecules, was probed using ^1H and ^31P{^1H} NMR spectroscopy studies (over 72 h at 37 °C). […] The ^31P{^1H} NMR studies also indicated the immediate formation of [Au^I(NAC)(PPh3)] or [Au^I(GSH)(PPh3)] (Fig. S50–S51 ^†). [Au^I(NAC)(PPh3)] and [Au^I(GSH)(PPh3)] were independently prepared in situ by reacting [Au^I(acac)(PPh3)][58] with NAC or GSH in DMSO-d6, to confirm the abovementioned assignments.

For data set [4], the system named is 4T1 cells. The experiment in a line: Monolayer cytotoxicity (MTT assay), 4T1 cells. As to conditions: 72 h incubation. It counts as cell-based, murine.
From the text: as §2, §3, §4
media. The final concentration of DMSO in each well was ≤1 %. […] The optical density was measured at 550 nm using a 96-well multiscanner autoreader. Absorbance values were normalised to (DMSO-containing) control wells and plotted as concentration of test compound versus % cell viability. […]
h, the fluorescence of the solutions was read at 590 nm (λex = 560 nm). […]
Cellular Uptake. […] The number of cells was counted at this stage, using a haemocytometer. […] All samples were diluted 17-fold with water and analysed using inductively coupled plasma mass spectrometry (ICP-MS, Thermo Scientific ICAP-Qc quadrupole ICP mass spectrometer). Gold levels are expressed as mass of Au (ng) per million cells. […]

For orientation: IC50 means the concentration needed to halve the response being measured. Turning to `COc1ccc2c(c1)c(CC(=O)[O][Au][PH](c1ccccc1)(c1ccccc1)c1ccccc1)c(C)n2C(=O)c1ccc(Cl)cc1` [complex 1], in data set [1], the “number and size of mammospheres formed” value is reported as “greatest inhibitory effect”. Further, the IC50 in data set [2] was determined as 190 ± 10 nM; in data set [4], 2240 ± 110 nM. Besides, the “reaction with stoichiometric NAC or GSH” value in data set [3] is on record as “The reaction occurred immediately”.
